Experimental data taken from ChEMBL document CHEMBL1201862, “PubChem BioAssay data set” (2004).
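Five concentrations, 48 hours, 96-well plates. Here, GI50 denotes the concentration required for 50% inhibition of growth.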 The source made the active and inactive calls. Rule as the data show it: active = GI50 up to about 1.1 µM and inactive = higher.

How the values were obtained:
Assay in all cases: NCI-60 cell line screen, 48 h
786-0 = tested on: 786-0
SF-539 = tested on: SF-539
NCI-H522 = tested on: NCI-H522
SF-295 = tested on: SF-295
HOP-62 = tested on: HOP-62
HOP-92 = tested on: HOP-92
SK-MEL-5 = tested on: SK-MEL-5
LOX IMVI = tested on: LOX IMVI
RPMI-8226 = tested on: RPMI-8226
SK-OV-3 = tested on: SK-OV-3
HT-29 = tested on: HT-29
COLO 205 = tested on: COLO 205
A549 = tested on: A549
NCI-H460 = tested on: NCI-H460
OVCAR-4 = tested on: OVCAR-4
M14 = tested on: M14
SNB-19 = tested on: SNB-19

Measured: GI50

O=C1/C(=C/c2cccc([N+](=O)[O-])c2)COc2ccc(Br)cc21
inactive: 786-0 90.2 µM | SF-539 > 100 µM | NCI-H522 55 µM | SF-295 > 100 µM | HOP-62 > 100 µM | HOP-92 > 100 µM | SK-MEL-5 > 100 µM | LOX IMVI 37.2 µM | RPMI-8226 2.24 µM | SK-OV-3 > 100 µM | HT-29 58.6 µM | COLO 205 > 100 µM | A549 > 100 µM | NCI-H460 > 100 µM

O=C(Cc1cc[n+]([O-])cc1)C(=O)Nc1cc(Cl)c(Cl)cc1Cl
inactive: OVCAR-4 > 100 µM | 786-0 > 100 µM | SF-539 > 100 µM | NCI-H522 > 100 µM | SF-295 > 100 µM | HOP-62 > 100 µM | HOP-92 38.3 µM | M14 > 100 µM | SK-MEL-5 > 100 µM | SNB-19 > 100 µM | RPMI-8226 > 100 µM | SK-OV-3 > 100 µM | COLO 205 > 100 µM | A549 > 100 µM | NCI-H460 > 100 µM

COCC1N=C(c2cc(OC)c(OC)c(OC)c2-c2cc3c(cc2[C@H](C)O)OCO3)O[C@H]1c1ccccc1 (some centres not stated)
inactive: OVCAR-4 33.5 µM | 786-0 > 100 µM | SF-539 69.7 µM | SF-295 48.2 µM | HOP-92 27.2 µM | M14 72.3 µM | SK-MEL-5 42.4 µM | SNB-19 61 µM | LOX IMVI 63.2 µM | RPMI-8226 31 µM | SK-OV-3 > 100 µM | HT-29 76.2 µM | COLO 205 30.1 µM | A549 56.8 µM

COc1cc2c(c3oc(-c4ccc5c(c4)OCO5)c(O)c(=O)c13)CCC(C)(C)O2
inactive: 786-0 > 100 µM | SF-539 > 100 µM | SF-295 > 100 µM | M14 > 100 µM | SK-MEL-5 > 100 µM | SNB-19 > 100 µM | LOX IMVI > 100 µM | RPMI-8226 34.5 µM | SK-OV-3 > 100 µM | HT-29 > 100 µM | COLO 205 > 100 µM | A549 > 100 µM

Cc1ccc(C(=O)C(C)N)cc1C (configuration not stated)
inactive: OVCAR-4 > 100 µM | 786-0 > 100 µM | SF-539 > 100 µM | NCI-H522 > 100 µM | SF-295 > 100 µM | HOP-62 > 100 µM | M14 > 100 µM | SK-MEL-5 > 100 µM | SNB-19 > 100 µM | LOX IMVI > 100 µM | RPMI-8226 > 100 µM | SK-OV-3 > 100 µM | HT-29 > 100 µM | COLO 205 > 100 µM | A549 > 100 µM | NCI-H460 > 100 µM

Cc1ccccc1/N=N/C(C(=O)c1ccccc1)C(=O)c1ccccc1
inactive: OVCAR-4 18.7 µM | 786-0 25.4 µM | SF-539 23.8 µM | NCI-H522 15.7 µM | SF-295 23.8 µM | HOP-62 23.8 µM | HOP-92 17.9 µM | M14 18.1 µM | SK-MEL-5 16.6 µM | SNB-19 18.9 µM | RPMI-8226 16.1 µM | SK-OV-3 41.6 µM | HT-29 28 µM | COLO 205 33.7 µM | A549 24.9 µM

CC(=O)OC1CC2C(C)(C)C(=O)C=C[C@]2(C)C2CCC3(C)C(=CC(=O)C3c3ccoc3)[C@]12C (some centres not stated)
inactive: OVCAR-4 18.4 µM | 786-0 15.5 µM | SF-539 16.9 µM | SF-295 15.2 µM | HOP-62 16.3 µM | HOP-92 19.9 µM | M14 21 µM | SK-MEL-5 13.1 µM | SNB-19 15.6 µM | LOX IMVI 14.8 µM | RPMI-8226 14.9 µM | SK-OV-3 20.7 µM | HT-29 13.5 µM | COLO 205 16.9 µM | A549 15.1 µM | NCI-H460 11.4 µM
